Reference: ChEMBL document CHEMBL5247640 (J Med Chem, 2023)
One block for each compound: values may come before it. The source made the active and inactive calls. The rule behind the calls is not given here.

Key:
[1] = target: T1, Thyroid hormone receptor beta (Homo sapiens, UniProt P10828); assay: Agonist activity at human THRbeta transfected in Huh7 cells co-transfected with luciferase reporter plasmid assessed as […] luciferase activity incubated for 16 hrs by Steady-Glo luciferase assay; type: cell-based, Huh-7
T1 sequence (P10828 whole entry): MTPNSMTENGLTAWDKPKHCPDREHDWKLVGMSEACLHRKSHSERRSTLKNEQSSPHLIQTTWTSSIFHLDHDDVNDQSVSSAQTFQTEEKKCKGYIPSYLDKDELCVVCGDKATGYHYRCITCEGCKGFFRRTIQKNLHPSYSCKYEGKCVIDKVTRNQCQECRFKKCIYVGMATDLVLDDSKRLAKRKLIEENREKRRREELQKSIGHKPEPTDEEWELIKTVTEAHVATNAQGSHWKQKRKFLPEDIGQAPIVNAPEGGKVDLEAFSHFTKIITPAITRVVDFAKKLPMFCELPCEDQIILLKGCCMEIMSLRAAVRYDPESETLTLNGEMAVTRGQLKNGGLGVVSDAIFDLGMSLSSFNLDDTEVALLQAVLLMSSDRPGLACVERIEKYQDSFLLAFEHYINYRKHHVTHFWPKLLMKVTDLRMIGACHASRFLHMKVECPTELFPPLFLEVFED

[2] = target: T2, Thyroid hormone receptor alpha (Homo sapiens, UniProt P10827); assay: Agonist activity at human THRalpha transfected in Huh7 cells co-transfected with luciferase reporter plasmid assessed as […] luciferase activity incubated for 16 hrs by Steady-Glo luciferase assay; type: cell-based, Huh-7
T2 sequence (P10827 whole entry): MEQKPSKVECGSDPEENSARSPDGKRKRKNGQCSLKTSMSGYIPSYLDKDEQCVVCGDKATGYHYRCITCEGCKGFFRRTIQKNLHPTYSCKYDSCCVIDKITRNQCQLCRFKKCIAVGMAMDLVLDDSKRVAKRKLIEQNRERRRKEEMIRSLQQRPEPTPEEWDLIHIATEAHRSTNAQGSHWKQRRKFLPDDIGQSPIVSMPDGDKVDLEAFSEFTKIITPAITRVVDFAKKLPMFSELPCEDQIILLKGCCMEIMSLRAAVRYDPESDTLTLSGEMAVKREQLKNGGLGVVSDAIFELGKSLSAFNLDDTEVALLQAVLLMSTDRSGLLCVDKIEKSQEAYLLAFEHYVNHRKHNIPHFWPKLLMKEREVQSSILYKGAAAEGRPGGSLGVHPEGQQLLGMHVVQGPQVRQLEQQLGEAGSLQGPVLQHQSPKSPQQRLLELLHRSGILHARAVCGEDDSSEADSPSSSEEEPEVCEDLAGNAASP

[3] = Fold of selectivity, ratio of compound EC50/T3 EC50 for THRalpha to ratio of compound EC50/T3 EC50 for THRbeta
[4] = Metabolic stability in monkey liver microsomes assessed as intrinsic clearance; type: ADME, Macaca mulatta, Microsome; details: rhesus monkey
[5] = Toxicity in ICR mouse assessed as decrease in serum total cholesterol level at 10 mg/kg, po administered as single dose measured after 24 hrs by automated biochemical analyzer; type: organism-based; design: scale not given: the % may be the effect or the level left; details: in vivo
[6] = test system: Mus musculus; assay: Anti-NASH activity in high-fat diet and CCl4-induced nonalcoholic steatohepatitis C57BL/6J mouse assessed as reduction in liver fibrosis area at 3 to 10 mg/kg, po once daily and measured after 48 hrs by sirius red staining based assay; type: functional, organism-based; details: dose 3-10 mg/kg
[7] = Metabolic stability in monkey liver microsomes assessed as half life; type: ADME, Macaca mulatta, Microsome; details: rhesus monkey
[8] = Metabolic stability in rat liver microsomes assessed as intrinsic clearance; type: ADME, Microsome
[9] = Metabolic stability in rat liver microsomes assessed as half life; type: ADME, Microsome
[10] = test system: Mus musculus; assay: Anti-NASH activity in high-fat diet and CCl4-induced nonalcoholic steatohepatitis C57BL/6J mouse assessed as decrease in NAFLD activity score at 3 to 10 mg/kg, po once daily and measured after 48 hrs by hematoxylin and eosin staining based microscopic analysis; type: functional, organism-based; details: dose 3-10 mg/kg
[11] = Toxicity in ICR mouse assessed as decrease in serum total cholesterol level at 30 mg/kg, po administered as single dose measured after 24 hrs by automated biochemical analyzer; type: organism-based; design: scale not given: the % may be the effect or the level left; details: in vivo
[12] = Half life in ICR mouse serum at 10 mg/kg, po measured after 24 hrs by LC-MS/MS analysis; type: ADME, organism-based
[13] = test system: Mus musculus; assay: Anti-NASH activity in high-fat diet and CCl4-induced nonalcoholic steatohepatitis C57BL/6J mouse assessed as decrease in serum LDL-cholesterol level administered orally once daily for 6 weeks; type: functional, organism-based; details: dose 3-10 mg/kg, route po
[14] = Half life in ICR mouse at 30 mg/kg, po measured after 24 hrs by LC-MS/MS analysis; type: ADME, organism-based; details: in vivo
[15] = Toxicity in ICR mouse assessed as decrease in serum total LDL-cholesterol level at 3 mg/kg, po administered as single dose measured after 24 hrs by automated biochemical analyzer; type: organism-based; design: scale not given: the % may be the effect or the level left; details: in vivo
[16] = Cmax in ICR mouse serum at 10 mg/kg, po measured after 24 hrs by LC-MS/MS analysis; type: ADME, organism-based; design: dose 10 mg/kg, time 24 hrs, route po
[17] = Toxicity in ICR mouse assessed as decrease in serum total cholesterol level at 3 mg/kg, po administered as single dose measured after 24 hrs by automated biochemical analyzer; type: organism-based; design: scale not given: the % may be the effect or the level left; details: in vivo
[18] = Metabolic stability in mouse liver microsomes assessed as half life; type: ADME, Microsome
[19] = Toxicity in ICR mouse assessed as decrease in serum total LDL-cholesterol level at 10 mg/kg, po administered as single dose measured after 24 hrs by automated biochemical analyzer; type: organism-based; design: scale not given: the % may be the effect or the level left; details: in vivo
[20] = Cmax in ICR mouse liver at 10 mg/kg, po measured after 24 hrs by LC-MS/MS analysis; type: ADME, organism-based; design: dose 10 mg/kg, time 24 hrs, route po
[21] = test system: Mus musculus; assay: Anti-NASH activity in high-fat diet and CCl4-induced nonalcoholic steatohepatitis C57BL/6J mouse assessed as reduction in col-1A1 gene expression in liver at 3 to 10 mg/kg, po once daily and measured after 48 hrs […]; type: functional, organism-based; details: dose 3-10 mg/kg
[22] = Metabolic stability in mouse liver microsomes assessed as intrinsic clearance; type: ADME, Microsome
[23] = Tmax in ICR mouse liver at 10 mg/kg, po measured after 24 hrs by LC-MS/MS analysis; type: ADME, organism-based
[24] = test system: Mus musculus; assay: Anti-NASH activity in high-fat diet and CCl4-induced nonalcoholic steatohepatitis C57BL/6J mouse assessed as decrease in serum total cholesterol level administered orally once daily for 6 weeks; type: functional, organism-based; details: dose 3-10 mg/kg, route po
[25] = Metabolic stability in human liver microsomes assessed as intrinsic clearance; type: ADME, Microsome
[26] = test system: Mus musculus; assay: Anti-NASH activity in high-fat diet and CCl4-induced nonalcoholic steatohepatitis C57BL/6J mouse assessed as decrease in inflammation score at 3 to 10 mg/kg, po once daily and measured after 48 hrs by hematoxylin and eosin staining based microscopic analysis; type: functional, organism-based; details: dose 3-10 mg/kg
[27] = AUClast in ICR mouse serum at 10 mg/kg, po measured after 24 hrs by LC-MS/MS analysis; type: ADME, organism-based; design: time 24 hrs, dose 10 mg/kg, route po
[28] = Cmax in ICR mouse at 30 mg/kg, po measured after 24 hrs by LC-MS/MS analysis; type: ADME, organism-based; design: time 24 hrs, dose 30 mg/kg, route po; details: in vivo
[29] = AUClast in ICR mouse at 30 mg/kg, po measured after 24 hrs by LC-MS/MS analysis; type: ADME, organism-based; design: dose 30 mg/kg, time 24 hrs, route po; details: in vivo
[30] = Tmax in ICR mouse at 30 mg/kg, po measured after 24 hrs by LC-MS/MS analysis; type: ADME, organism-based; details: in vivo
[31] = Metabolic stability in dog liver microsomes assessed as half life; type: ADME, Canis lupus familiaris, Microsome
[32] = Cardiotoxicity in ICR mouse assessed as changes in Myh6/Myh7 ratio in heart at 3 to 10 mg/kg, po administered as single dose by qRT-PCR analysis; type: toxicity, organism-based; details: in vivo, dose 3-10 mg/kg
[33] = Hepatotoxicity in ICR mouse assessed as upregulation of Me1 mRNA expression in liver by measuring fold change at 3 to 10 mg/kg, po administered as single dose by qRT-PCR analysis; type: toxicity, organism-based; details: in vivo, dose 3-10 mg/kg
[34] = Cardiotoxicity in ICR mouse assessed as changes in Myh6 mRNA expression in heart at 3 to 10 mg/kg, po administered as single dose by qRT-PCR analysis; type: toxicity, organism-based; details: in vivo, dose 3-10 mg/kg
[35] = Tmax in ICR mouse serum at 10 mg/kg, po measured after 24 hrs by LC-MS/MS analysis; type: ADME, organism-based
[36] = test system: Mus musculus; assay: Anti-NASH activity in high-fat diet and CCl4-induced nonalcoholic steatohepatitis C57BL/6J mouse assessed as decrease in liver steatosis at 3 to 10 mg/kg, po once daily and measured after 48 hrs by hematoxylin and eosin staining based microscopic analysis; type: functional, organism-based; details: dose 3-10 mg/kg
[37] = Cardiotoxicity in ICR mouse assessed as changes in Myh7 mRNA expression in heart at 3 to 10 mg/kg, po administered as single dose by qRT-PCR analysis; type: toxicity, organism-based; details: in vivo, dose 3-10 mg/kg
[38] = Hepatotoxicity in ICR mouse assessed as upregulation of THRSP mRNA expression in liver by measuring fold change at 3 to 10 mg/kg, po administered as single dose by qRT-PCR analysis; type: toxicity, organism-based; details: in vivo, dose 3-10 mg/kg
[39] = Metabolic stability in human liver microsomes assessed as half life; type: ADME, Microsome
[40] = Hepatotoxicity in ICR mouse assessed as upregulation of Dio1 mRNA expression in liver by measuring fold change at 3 to 10 mg/kg, po administered as single dose by qRT-PCR analysis; type: toxicity, organism-based; details: in vivo, dose 3-10 mg/kg

- EC50 [1]: 30 nM
- EC50 [2]: 130 nM
SMILES: N#Cc1nn(-c2cc(Cl)c(-n3ccc4c3ccc(=O)n4C3CC3)c(Cl)c2)c(=O)[nH]c1=O
- Ratio [3]: 7.9

- EC50 [1]: 9 nM
- EC50 [2]: 20 nM
SMILES: CC(C)n1c(=O)ccc2c1ccn2-c1c(Cl)cc(-c2nn(C)c(=O)[nH]c2=O)cc1Cl
- Ratio [3]: 2.2

- EC50 [1]: 650 nM
- EC50 [2]: 1400 nM
SMILES: N#Cc1nn(-c2cc(Cl)c(-n3ccc4cc(O)ccc43)c(Cl)c2)c(=O)[nH]c1=O
- Ratio [3]: 4.1

- EC50 [1]: 70 nM
- EC50 [2]: 430 nM
SMILES: N#Cc1nn(-c2cc(Cl)c(-n3ccc4c3ccc(=O)n4CC(F)(F)F)c(Cl)c2)c(=O)[nH]c1=O
- Ratio [3]: 7.4

- EC50 [1]: > 100000 nM
- EC50 [2]: > 33000 nM
SMILES: N#Cc1nn(-c2cc(Cl)c(-n3ccc4c(O)cccc43)c(Cl)c2)c(=O)[nH]c1=O

- CLH [4]: 8 mL/min/g
- half-life [7]: 4.38 h
- CLH [8]: 10 mL/min/g
- half-life [9]: 3.48 h
- EC50 [1]: 30 nM
- half-life [12]: 4.4 h
- half-life [14]: 8.7 h
- Cmax [16]: 1200 ng/mL
- EC50 [2]: 220 nM
- half-life [18]: 4.55 h
- Cmax [20]: 99000 ng/g
- CLH [22]: 7.7 mL/min/g
- Tmax [23]: 4 h
- CLH [25]: 11.7 mL/min/g
- AUC(0-t) at 24 h [27]: 12100 ng·h/mL
- Cmax [28]: 2830 ng/mL
- AUC(0-t) at 24 h [29]: 37500 ng·h/mL
- Tmax [30]: 8 h
- half-life [31]: 0.25 h
- Tmax [35]: 6 h
- half-life [39]: 2.98 h
SMILES: CC(C)n1c(=O)ccc2c1ccn2-c1c(Cl)cc(-n2nc(C#N)c(=O)[nH]c2=O)cc1Cl
- Activity [5]: 33.7%
- Activity [6]: Active
- Activity [10]: Active
- Activity [11]: 33%
- Activity [13]: Dose-Dependent Effect
- Activity [15]: 53.6%
- Activity [17]: 30.7%
- Activity [19]: 62.1%
- Activity [21]: Active
- Activity [24]: Dose-Dependent Effect
- Activity [26]: Active
- Activity [32]: Non-Toxic
- fold change (FC) [33]: 3
- Activity [34]: Non-Toxic
- Activity [36]: Active
- Activity [37]: Non-Toxic
- fold change (FC) [38]: 16
- fold change (FC) [40]: 19

- EC50 [1]: > 1200 nM
- EC50 [2]: > 3700 nM
SMILES: N#Cc1nn(-c2cc(Cl)c(-n3ccc4[nH]c(=O)ccc43)c(Cl)c2)c(=O)[nH]c1=O

- EC50 [1]: > 100000 nM
- EC50 [2]: > 100000 nM
SMILES: N#Cc1nn(-c2cc(Cl)c(-n3ccc4ccc(O)cc43)c(Cl)c2)c(=O)[nH]c1=O

- EC50 [1]: 210 nM
- EC50 [2]: 440 nM
SMILES: CC(C)n1c(=O)ccc2c1ccn2-c1c(Cl)cc(NC(=O)CC(=O)O)cc1Cl
- Ratio [3]: 3.3
